Patent US20160177261A1, “METHODS OF INDUCING AND PREVENTING NEUROFIBROMATOSIS IN SCHWANN CELLS” (University of Central Florida Research Foundation, Inc., priority 2007, published 2016)
Entries after “also recorded” stand apart in the source; their conditions may differ.

How the values were obtained:
Assay type in all cases: cell-based, rat
[1] = tested on: P-ErbB2; experiment: Western blot densitometry of phosphorylated ErbB2 in subconfluent SCs; settings: NRG1 10 ng/ml 30 min with AG825 (1 μM)
Procedure: (§1) FIG. 3: NRG1 stimulates phosphorylation of Sch by PKA. A, C) Subconfluent SC cultures grown on PLL were serum-starved overnight and were stimulated for 30 minutes with NRG1 (10 ng/ml) in the absence and presence of AG825 (1 μM). Western blot analysis was used to determine the levels of phosphorylated and total ErbB2, Sch, and Pak. B, D) Quantification of the western blots of starved (D0.5), NRG1 stimulated (NRG) and NRG1 plus AG825 (N+A) stimulated cultures is shown. E) Subconfluent SCs grown as above were stimulated for 30 minutes with NRG in the presence and absence of PKI 14-22 (50 nM), and with forskolin (FSK; 2 μM) alone. F) Quantification of the Western blots for ErbB2, Sch, and Pak in starved (D0.5) cultures, and in those stimulated with NRG1 (NRG), NRG1 with PKI 14-22 (N+P), and forskolin (FSK) is shown. GAPDH was used as a loading control for all blots. The graphs represent the average fold increase in each condition in three or more experiments. Error bars represent the SEM for each condition. […]
Primary rat SCs were grown to approximately 60% confluency on PLL coated dishes. […] Following extraction, the SC lysate was measured for protein concentration, and […] of total SC lysate was separated by SDS-PAGE and was transferred to PVDF membranes. […] Bands intensities were quantified and normalized to GAPDH, and to their respective total proteins for phosphorylated forms. […]

[2] = tested on: PS518-Sch; experiment: Western blot densitometry of Sch-S518 phosphorylation in subconfluent SCs
Procedure: FIG. 3: NRG1 stimulates phosphorylation of Sch by PKA. A, C) Subconfluent SC cultures grown on PLL were serum-starved overnight and were stimulated for 30 minutes with NRG1 (10 ng/ml) in the absence and presence of AG825 (1 μM). Western blot analysis was used to determine the levels of phosphorylated and total ErbB2, Sch, and Pak. B, D) Quantification of the western blots of starved (D0.5), NRG1 stimulated (NRG) and NRG1 plus AG825 (N+A) stimulated cultures is shown. E) Subconfluent SCs grown as above were stimulated for 30 minutes with NRG in the presence and absence of PKI 14-22 (50 nM), and with forskolin (FSK; 2 μM) alone. F) Quantification of the Western blots for ErbB2, Sch, and Pak in starved (D0.5) cultures, and in those stimulated with NRG1 (NRG), NRG1 with PKI 14-22 (N+P), and forskolin (FSK) is shown. GAPDH was used as a loading control for all blots. The graphs represent the average fold increase in each condition in three or more experiments. Error bars represent the SEM for each condition. P values are <0.05(*) with respect to starved SCs or as indicated.
(§2) FIG. 4: Soluble Laminin-1 Stimulates Phosphorylation of Sch. A, C) Subconfluent SC cultures grown on PLL were stimulated with laminin-1 (10 μg/ml) for 30 minutes after overnight serum starvation. Western blot analysis using antibodies specific for the phosphorylated forms of Sch (PS518-Sch) and Pak (P-Pak) and antibodies against total Sch (Sch-C18), Pak, and β1 integrin are shown. B, D). Quantification of Western blots for starved (D0.5) and laminin-1 stimulated (Lam) cultures is shown. The graphs represent the average fold increase in each condition observed in three or more experiments. GAPDH was used as a loading control for all blots. Error bars represent the SEM for each condition. P values are <0.05(*) and <0.01(**).
Subconfluent SC cultures grown on PLL were serum-starved overnight and were stimulated for 30 minutes with NRG1 (10 ng/ml) and laminin-1 ([…]) together, in the absence and presence of AG825 (1 μM). A, C, E, G) Western blot analyses were conducted using phospho-specific antibodies for Sch (PS518-Sch), Pak (P-Pak), and CREB (P-CREB). Total protein expression was analyzed using antibodies against Sch (Sch-C18), Pak, β1 integrin, and ErbB2. B, D, F) Quantification of the expression levels of phosphorylated forms of Sch (PS518-Sch) and Pak (P-Pak) were assessed in starved (D0.5), NRG1 and laminin-1 stimulated (NRG+Lam), and NRG1 plus laminin-1 and AG825 (N+L+A) stimulated cultures. The amount of total Sch (Sch-C18), Pak, β1 integrin, and ErbB2 proteins were measured by densitometry. GAPDH was used as a loading control. The graphs represent the average fold increase in each condition in three or more experiments. Error bars represent the SEM for each condition. […]

[3] = tested on: P-Pak; experiment: Western blot densitometry of phosphorylated Pak in subconfluent SCs
Procedure: as §1, with “shown.” for “shown. GAPDH was used as a loading control for all blots. The graphs represent the average fold increase in each condition in three or more experiments. Error bars represent the SEM for each condition.”
FIG. 4: Soluble Laminin-1 Stimulates Phosphorylation of Sch. […] Quantification of Western blots for starved (D0.5) and laminin-1 stimulated (Lam) cultures is shown. […]
Subconfluent SC cultures grown on PLL were serum-starved overnight and were stimulated for 30 minutes with NRG1 (10 ng/ml) and laminin-1 ([…]) together, in the absence and presence of AG825 (1 μM). […] Total protein expression was analyzed using antibodies against Sch (Sch-C18), Pak, β1 integrin, and ErbB2. […] The amount of total Sch (Sch-C18), Pak, β1 integrin, and ErbB2 proteins were measured by densitometry. […]

[4] = tested on: P-CREB; experiment: Western blot of phosphorylated CREB in subconfluent SCs
Procedure: as §1, with “shown.” for “shown. GAPDH was used as a loading control for all blots. The graphs represent the average fold increase in each condition in three or more experiments. Error bars represent the SEM for each condition.”
(§3) Subconfluent SC cultures grown on PLL were serum-starved overnight and were stimulated for 30 minutes with NRG1 (10 ng/ml) and laminin-1 ([…]) together, in the absence and presence of AG825 (1 μM). […] Total protein expression was analyzed using antibodies against Sch (Sch-C18), Pak, β1 integrin, and ErbB2. B, D, F) Quantification of the expression levels of phosphorylated forms of Sch (PS518-Sch) and Pak (P-Pak) were assessed in starved (D0.5), NRG1 and laminin-1 stimulated (NRG+Lam), and NRG1 plus laminin-1 and AG825 (N+L+A) stimulated cultures. […]

[5] = tested on: ErbB2; experiment: Western blot densitometry of total ErbB2 protein in subconfluent SCs
Procedure: as §1, with “experiments.” for “experiments. Error bars represent the SEM for each condition.”
(§4) FIG. 6: β1 integrin and ErbB2 Exist as a Complex on the Plasma Membrane. […] E) Quantification of total β1 integrin and ErbB2 expression was assessed by densitometry in starved (D0.5), NRG1 stimulated (NRG) and NRG with AG825 (N+A) stimulated cultures. […] G) Quantification of total β1 integrin and ErbB2 expression in starved (D0.5), laminin-stimulated (Lam) and laminin+AG825 (L+A) stimulated cultures is shown. […]

[6] = tested on: β1 integrin; experiment: Western blot densitometry of total β1 integrin protein in subconfluent SCs
Procedure: as §2
as §4, with “Membrane. A) Subconfluent SC cultures grown on PLL and laminin-1 were starved overnight and were stimulated with NRG1 for 30 minutes. SCs were triple-labeled with the indicated antibodies to assess protein co-localization.” for “Membrane.”
as §3, with “cultures. The amount of total Sch (Sch-C18), Pak, β1 integrin, and ErbB2 proteins were measured by densitometry.” for “cultures.”

[7] = tested on: Pak; experiment: Western blot densitometry of total Pak protein in subconfluent SCs; settings: NRG1 and laminin-1 30 min in the presence and absence of AG825
Procedure: as §2
as §3, with “cultures. The amount of total Sch (Sch-C18), Pak, β1 integrin, and ErbB2 proteins were measured by densitometry.” for “cultures.”

[8] = tested on: Sch; experiment: Western blot densitometry of total Sch (Sch-C18) protein in subconfluent SCs; settings: NRG1 and laminin-1 30 min in the presence and absence of AG825
Procedure: as §2
as §3, with “cultures. The amount of total Sch (Sch-C18), Pak, β1 integrin, and ErbB2 proteins were measured by densitometry.” for “cultures.”

[9] = AG825 in the absence of NRG1 (data not shown)
[10] = NRG1 and laminin-1 30 min in the presence of AG825 (1 μM), compared to starved SCs

COc1cc(/C=C(\C#N)C(N)=O)cc(CSc2nc3ccccc3s2)c1O [AG825]
effect on NRG1 stimulated phosphorylation of ErbB2 [1]: reduced NRG1 stimulated phosphorylation of ErbB2 significantly
effect on basal level of phosphorylated Sch [2, 9]: increases basal levels
reduction of Sch-S518 phosphorylation in response to NRG1 ([2]; NRG1 10 ng/ml 30 min with inhibitor (AG825 1 μM or PKI 14-22 50 nM)): 50%
effect on NRG1 stimulated Sch-S518 phosphorylation ([2]; NRG1 30 min with inhibitor (AG825 1 μM or PKI 14-22 50 nM)): reduced
PS518-Sch fold increase [2, 10]: 4.6 fold
effect on basal level of phosphorylated Pak [3, 9]: increases basal levels
P-Pak fold increase [3, 10]: 3.1 fold
effect on NRG1 stimulated CREB phosphorylation ([4]; NRG1 30 min with inhibitor (AG825 or PKI 14-22 50 nM)): inhibit this phosphorylation
effect on CREB phosphorylation in dually stimulated SCs ([4]; NRG1 and laminin-1 30 min with AG825 (1 μM)): inhibited phosphorylation of CREB; also recorded: eliminated
effect on NRG1 induced change of ErbB2 protein levels ([5]; NRG1 30 min with AG825 (1 μM)): attenuated the reduction in ErbB2 levels; also recorded: suppressed NRG1's effect; also recorded: attenuates the loss of ErbB2 protein
effect on ErbB2 levels ([5]; laminin-1 30 min with AG825 (1 μM), with respect to laminin-stimulated SCs): did not alter
effect on NRG1 induced increase of β1 integrin protein levels ([6]; NRG1 30 min with AG825 (1 μM)): suppressed NRG1's effect; also recorded: inhibits the increase in β1 integrin
effect on β1 integrin protein levels ([6]; NRG1 and laminin-1 30 min in the presence and absence of AG825): not significantly changed
decrease in β1 integrin levels ([6]; laminin-1 30 min with AG825 (1 μM)): 50%
effect on Pak protein levels [7]: not significantly changed
effect on Sch protein levels [8]: not significantly changed
